Where two headings read alike, the source gives them in different places.
Legend:
[1] = target: T1, MMP-14 (Homo sapiens, UniProt P50281); assay: In vitro MMP inhibition, Ki determination (fluorogenic substrate II); type: biochemical; conditions: read-out: MMP-14 Ki
T1 construct: The catalytic domain enzyme was expressed in E. coli inclusion bodies, solubilized in urea; made in house
How it was run: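 Apparent Ki was fitted with Morrison's equation from reaction rates at a single low enzyme level. Enzyme was APMA- or trypsin-activated refolded MMP-14 catalytic domain, buffered at pH 7.5 with 10 mM CaCl2.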

[2] = target: T2, MMP-2 (Homo sapiens, UniProt P08253); assay: as above; type: biochemical; conditions: read-out: MMP-2 Ki
T2 construct: made in house; host or cells: MMP-2-transfected p2AHT2 cells
T2 sequence (P08253 110-660): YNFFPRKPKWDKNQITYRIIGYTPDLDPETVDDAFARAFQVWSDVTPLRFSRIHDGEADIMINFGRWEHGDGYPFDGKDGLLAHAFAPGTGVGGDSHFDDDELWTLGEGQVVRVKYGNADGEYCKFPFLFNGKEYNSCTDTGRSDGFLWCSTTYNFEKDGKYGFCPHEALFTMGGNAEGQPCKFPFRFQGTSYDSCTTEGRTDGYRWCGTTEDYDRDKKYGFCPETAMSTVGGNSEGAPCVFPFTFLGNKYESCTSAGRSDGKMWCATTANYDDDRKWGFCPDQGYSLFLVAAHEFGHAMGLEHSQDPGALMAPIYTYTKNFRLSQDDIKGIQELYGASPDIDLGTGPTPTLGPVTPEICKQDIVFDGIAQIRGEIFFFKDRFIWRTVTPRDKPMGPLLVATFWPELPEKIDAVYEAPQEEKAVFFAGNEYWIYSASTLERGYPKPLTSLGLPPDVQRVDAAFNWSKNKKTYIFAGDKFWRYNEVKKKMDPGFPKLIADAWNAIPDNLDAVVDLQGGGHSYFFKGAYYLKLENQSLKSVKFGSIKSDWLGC

SMILES | Ki ([1]; value not in parenthesis) | Ki ([2]; value not in parenthesis) | Ki ([1]; value outside parentheses) | Ki ([2]; value outside parentheses)
O=C(NO)C1(S(=O)(=O)N2CCN(c3ncc(-c4ccc(Cl)cc4)cn3)CC2)CCOCC1 [Example 66] | 1120 nM | 2.52 nM | – | –
CCCCc1cnc(N2CCN(S(=O)(=O)C3(C(=O)NO)CCOCC3)CC2)nc1 [Example 105] | 1660 nM | 2.94 nM | – | –
CCCCc1ccc(N2CCN(S(=O)(=O)C3(C(=O)NO)CCOCC3)CC2)nc1 [Example 168] | 534 nM | 0.15 nM | – | –
CCc1ccc(-c2ccc(C3CCN(S(=O)(=O)C4(C(=O)NO)CCOCC4)CC3)nc2)cc1 [Example 393] | – | – | 194 nM | 2.23 nM
CCCCc1ccc(C2CCN(S(=O)(=O)C3(C(=O)NO)CCN(CCOC)CC3)CC2)nc1 [Example 397] | – | – | 2920 nM | 0.69 nM
O=C(NO)C1(S(=O)(=O)N2CCC(c3ccc(OCc4ccccc4)cn3)CC2)CCOCC1 [Example 398] | – | – | 514 nM | 1.31 nM
N#Cc1ccc(-c2cnc(N3CCN(S(=O)(=O)C4(C(=O)NO)CCOCC4)CC3)s2)cc1 [Example 399] | – | – | 9.69 nM | 0.05 nM
CCCC#Cc1cnc(N2CCN(S(=O)(=O)C3(C(=O)NO)CCOCC3)CC2)s1 [Example 400] | – | – | 724 nM | 0.71 nM
CCCCCC/C=C\C1CCN(S(=O)(=O)C2(C(=O)NO)CCOCC2)CC1 [Example 401] | – | – | 2720 nM | 12.8 nM
CCCCCC/C=C/C1CCN(S(=O)(=O)C2(C(=O)NO)CCOCC2)CC1 [Example 402] | – | – | – | 0.83 nM
O=C(NO)C1(S(=O)(=O)N2CCC(COCc3ccc(C(F)(F)F)cc3)CC2)CCOCC1 [Example 403] | – | – | 129 nM | 4.96 nM
O=C(NO)C1(S(=O)(=O)N2CCC(COCc3ccc(OC(F)(F)F)cc3)CC2)CCOCC1 [Example 404] | – | – | 71.8 nM | 1.41 nM
O=C(NO)C1(S(=O)(=O)N2CCC(COCc3ccc(SC(F)(F)F)cc3)CC2)CCOCC1 [Example 405] | – | – | 95.7 nM | 1.27 nM
CCCCCCCOC1CCN(S(=O)(=O)C2(C(=O)NO)CCOCC2)CC1 [Example 406] | – | – | 1190 nM | 1.76 nM
O=C(NO)C1(S(=O)(=O)N2CCC(c3ccc(-c4cccs4)c(F)c3)CC2)CCOCC1 [Example 407] | – | – | 3030 nM | 0.361 nM
O=C(NO)C1(S(=O)(=O)N2CCC(c3ccc(N4CCCC4)cn3)CC2)CCOCC1 [Example 408] | – | – | 1050 nM | 6.48 nM
O=C(NO)C1(S(=O)(=O)N2CCC(c3ccc(-c4ccccn4)cn3)CC2)CCOCC1 [Example 409] | – | – | 1770 nM | 24.3 nM
CCCCOc1ccc(C2CCN(S(=O)(=O)C3(C(=O)NO)CCOCC3)CC2)nc1 [Example 410] | – | – | 1360 nM | 0.55 nM
CCC(F)(F)CCc1ccc(C2CCN(S(=O)(=O)C3(C(=O)NO)CCOCC3)CC2)cn1 [Example 411] | – | – | > 10000 nM | 15.3 nM
Cc1ccc(-c2csc(N3CCN(S(=O)(=O)C4(C(=O)NO)CCOCC4)CC3)n2)cc1 [Example 412] | – | – | > 10000 nM | > 10000 nM
Cc1cccc(-c2csc(N3CCN(S(=O)(=O)C4(C(=O)NO)CCOCC4)CC3)n2)c1 [Example 413] | – | – | > 10000 nM | 6010 nM
O=C(NO)C1(S(=O)(=O)N2CCN(c3nc(-c4ccccc4)cs3)CC2)CCOCC1 [Example 415] | – | – | > 10000 nM | 2880 nM
Cc1ccc(-c2ccc(C3CCN(S(=O)(=O)C4(C(=O)NO)CCOCC4)CC3)nc2)s1 [Example 416] | – | – | 506 nM | 2.07 nM
O=C(NO)C1(S(=O)(=O)N2CCC(c3ccc(-c4cccc(F)c4)cn3)CC2)CCOCC1 [Example 417] | – | – | 1300 nM | 4.13 nM
O=C(NO)C1(S(=O)(=O)N2CCC(c3ccc(OCCC(F)(F)F)cn3)CC2)CCOCC1 [Example 418] | – | – | 5360 nM | 0.97 nM
O=C(NO)C1(S(=O)(=O)N2CCN(c3ccc(-c4nn[nH]n4)cc3)CC2)CCOCC1 [Example 419] | – | – | > 10000 nM | 27.9 nM
CCCCc1ccc(C2(O)CCN(S(=O)(=O)C3(C(=O)NO)CCOCC3)CC2)nc1 [Example 420] | – | – | > 10000 nM | 181 nM
